Target: T1, human FSH receptor (Homo sapiens, UniProt P23945)
T1 construct: expressed in transfected cells; host or cells: Chinese Hamster Ovary (CHO) cells
T1 sequence (P23945 18-695): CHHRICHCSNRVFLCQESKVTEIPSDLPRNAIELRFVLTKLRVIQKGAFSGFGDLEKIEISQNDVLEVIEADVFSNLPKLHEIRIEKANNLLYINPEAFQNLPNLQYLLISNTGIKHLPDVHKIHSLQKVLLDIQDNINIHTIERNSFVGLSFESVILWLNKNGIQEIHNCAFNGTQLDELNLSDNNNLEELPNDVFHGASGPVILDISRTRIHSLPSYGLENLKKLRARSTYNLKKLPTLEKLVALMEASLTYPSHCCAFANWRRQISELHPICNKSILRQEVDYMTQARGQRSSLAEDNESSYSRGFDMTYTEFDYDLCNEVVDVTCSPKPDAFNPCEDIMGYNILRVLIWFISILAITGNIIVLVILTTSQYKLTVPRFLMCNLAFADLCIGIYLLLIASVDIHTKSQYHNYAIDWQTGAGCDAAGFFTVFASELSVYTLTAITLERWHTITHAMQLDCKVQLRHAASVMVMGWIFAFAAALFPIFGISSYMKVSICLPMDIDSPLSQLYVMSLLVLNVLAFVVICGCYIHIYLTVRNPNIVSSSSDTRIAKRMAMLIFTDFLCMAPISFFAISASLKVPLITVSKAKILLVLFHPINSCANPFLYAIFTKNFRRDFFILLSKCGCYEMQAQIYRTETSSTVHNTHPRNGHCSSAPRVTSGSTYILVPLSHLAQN
Experiment: CHO-FSH in vitro bioactivity (CRE-luciferase reporter, agonistic or antagonistic set-up)
Format: cell-based
Settings: CHO cells stably transfected with human FSH receptor and CRE-luciferase; either agonistic or antagonistic (rec-hFSH, 10 mU/ml) assay set-up or both / at least one of the assays; read-out: EC50 (IC50)
Experimental: FSH activity of compounds were tested in Chinese Hamster Ovary (CHO) cells stably transfected with the human FSH receptor and cotransfected with a cAMP responsive element (CRE)/promotor directing the expression of a firefly luciferase reporter gene. Binding of ligand to the Gs-coupled FSH receptor will result in an increase of cAMP, which in turn will induce an increased transactivation of the luciferase reporter construct. To test antagonistic properties recombinant FSH in a concentration that induces approximately 80% of the maximal stimulation of cAMP accumulation in the absence of test compound was added (rec-hFSH, 10 mU/ml). The luciferase signal was quantified using a luminescence counter. For test compounds, EC50 values (concentration of test compound causing half-maximal (50%) stimulation or reduction) were calculated For that purpose the software program GraphPad PRISM, version 3.0 (GraphPad software Inc., San Diego) was used.

SMILES | EC50 [nM]
CC(=O)N1c2cc(OCC(=O)N(C)C)c(NC(=O)c3ccc(-c4ccccc4)cc3)cc2C(C)(c2ccccc2)CC1(C)C (stereo not shown) [Example 16, Biphenyl-4-carboxylic acid (1-acetyl-7-dimethylcarbamoylmethoxy-2,2,4-trimethyl-4-phenyl-1,2,3,4-tetrahydro-quinolin-6-yl)-amide] | < 100
CC(=O)N1c2cc(N(C)C)c(NC(=O)C3CCCC3)cc2C(C)(c2ccccc2)CC1(C)C (stereo not shown) [Example 37, Cyclopentanecarboxylic acid (1-acetyl-7-dimethylamino-2,2,4-trimethyl-4-phenyl-1,2,3,4-tetrahydro-quinolin-6yl)-amide] | < 100
CC(=O)N1c2cc(N(C)C)c(NC(=O)C(C)C)cc2C(C)(c2ccccc2)CC1(C)C (stereo not shown) [Example 38, N-(1-Acetyl-7-dimethylamino-2,2,4-trimethyl-4-phenyl-1,2,3,4-tetrahydro-quinolin-6-yl)-isobutyramide] | < 100
CCNc1cc2c(cc1NC(=O)c1ccc(-c3ccccc3)cc1)C(C)(c1ccccc1)CC(C)(C)N2C(C)=O (stereo not shown) [Example 41, Biphenyl-4-carboxylic acid (1-acetyl-7-ethylamino-2,2,4-trimethyl-4-phenyl-1,2,3,4-tetrahydro-quinolin-6-yl)amide] | < 100
